In ChEMBL document CHEMBL4007434, “Indazole-Based Covalent Inhibitors To Target Drug-Resistant Epidermal Growth Factor Receptor” (J Med Chem, 2017):
Calls of active or inactive are those of the source. The rule behind the calls is not given here.

How the values were obtained:
[1] = biological target: T1, Epidermal growth factor receptor (Homo sapiens, UniProt P00533, L858R)
[2] = biological target: Epidermal growth factor receptor (Homo sapiens, UniProt P00533, L858R/T790M)
[3] = biological target: T2, Tyrosine-protein kinase JAK3 (Homo sapiens) (UniProt P52333); test: Inhibition of recombinant human GST-tagged cytoplasmic JAK3 (781 to 1124 amino acid residues) catalytic domain expressed in baculovirus expression system at 1 uM by Z'-LYTE assay
T2 sequence (whole entry): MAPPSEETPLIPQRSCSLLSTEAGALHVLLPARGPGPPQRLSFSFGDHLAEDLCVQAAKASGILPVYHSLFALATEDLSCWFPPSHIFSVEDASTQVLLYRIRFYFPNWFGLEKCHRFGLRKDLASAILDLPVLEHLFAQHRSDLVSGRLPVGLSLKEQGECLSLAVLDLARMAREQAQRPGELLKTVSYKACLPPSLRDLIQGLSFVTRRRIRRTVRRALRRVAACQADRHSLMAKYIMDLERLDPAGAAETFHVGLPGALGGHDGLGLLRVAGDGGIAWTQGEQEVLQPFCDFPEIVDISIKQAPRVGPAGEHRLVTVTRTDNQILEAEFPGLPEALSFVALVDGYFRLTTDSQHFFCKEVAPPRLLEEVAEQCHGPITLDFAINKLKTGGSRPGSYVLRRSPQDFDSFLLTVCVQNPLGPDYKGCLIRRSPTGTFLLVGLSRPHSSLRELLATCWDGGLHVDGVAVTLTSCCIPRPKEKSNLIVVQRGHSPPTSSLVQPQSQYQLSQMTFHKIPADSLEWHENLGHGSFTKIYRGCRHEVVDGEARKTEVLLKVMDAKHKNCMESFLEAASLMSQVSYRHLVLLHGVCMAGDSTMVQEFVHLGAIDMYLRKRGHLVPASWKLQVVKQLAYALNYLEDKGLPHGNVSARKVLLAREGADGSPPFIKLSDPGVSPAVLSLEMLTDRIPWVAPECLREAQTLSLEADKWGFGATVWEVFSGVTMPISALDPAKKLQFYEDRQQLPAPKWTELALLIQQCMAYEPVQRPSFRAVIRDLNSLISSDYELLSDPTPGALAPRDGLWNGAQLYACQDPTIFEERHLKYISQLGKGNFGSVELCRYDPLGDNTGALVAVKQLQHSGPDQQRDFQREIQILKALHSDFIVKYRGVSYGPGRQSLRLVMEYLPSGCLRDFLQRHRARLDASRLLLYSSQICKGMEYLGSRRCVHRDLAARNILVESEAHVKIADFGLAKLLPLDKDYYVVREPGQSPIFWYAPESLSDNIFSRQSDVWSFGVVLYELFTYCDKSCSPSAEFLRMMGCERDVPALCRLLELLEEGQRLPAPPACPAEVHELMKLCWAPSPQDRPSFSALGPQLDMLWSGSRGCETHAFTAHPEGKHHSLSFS

[4] = biological target: Tyrosine-protein kinase BTK (Homo sapiens) (UniProt Q06187); test: Inhibition of full-length recombinant human His-tagged cytoplasmic BTK expressed in baculovirus expression system at 1 uM by Z'-LYTE assay
[5] = biological target: Receptor tyrosine-protein kinase erbB-2 (Homo sapiens) (UniProt P04626); test: Inhibition of ERBB2 (unknown origin) at 1 uM by Z'-LYTE assay
[6] = biological target: Receptor tyrosine-protein kinase erbB-4 (Homo sapiens) (UniProt Q15303); test: Inhibition of recombinant truncated human His/IgG1 Fc-tagged ERBB4 expressed in mammalian expression system at 1 uM by Z'-LYTE assay
[7] = biological target: T3, Tyrosine-protein kinase TXK (Homo sapiens) (UniProt P42681); test: Inhibition of full-length recombinant human N-terminal GST-tagged cytoplasmic TXK (260 to 527 amino acid residues) expressed in baculovirus expression system at 1 uM by Z'-LYTE assay
T3 sequence (whole entry): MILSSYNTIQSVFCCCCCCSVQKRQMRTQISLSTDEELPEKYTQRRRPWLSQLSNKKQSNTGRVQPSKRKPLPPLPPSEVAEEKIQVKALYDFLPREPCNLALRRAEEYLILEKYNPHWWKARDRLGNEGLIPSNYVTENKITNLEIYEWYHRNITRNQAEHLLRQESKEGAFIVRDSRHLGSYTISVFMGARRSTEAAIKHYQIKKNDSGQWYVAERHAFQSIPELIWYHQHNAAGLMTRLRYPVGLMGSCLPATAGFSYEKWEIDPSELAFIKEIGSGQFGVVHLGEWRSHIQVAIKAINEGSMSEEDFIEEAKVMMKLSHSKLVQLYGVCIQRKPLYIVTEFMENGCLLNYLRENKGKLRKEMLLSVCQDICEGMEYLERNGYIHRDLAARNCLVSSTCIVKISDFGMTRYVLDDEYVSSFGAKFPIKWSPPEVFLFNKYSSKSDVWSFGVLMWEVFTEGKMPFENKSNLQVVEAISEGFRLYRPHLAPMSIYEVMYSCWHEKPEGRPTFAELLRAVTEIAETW

[8] = biological target: T4, Epidermal growth factor receptor (Homo sapiens, UniProt P00533); test: Ratio of Kinact to Ki for reversible inhibition of wild-type human N-terminal GST-tagged EGFR cytoplasmic domain (669 to 1210 end amino acid residues) expressed in baculovirus expression system
[9] = system: Epidermal growth factor receptor (Homo sapiens), P00533 [L858R,T790M,C797S]; test: Inhibition of EGFR L858R/T790M/C797S triple mutant (unknown origin) by HTRF assay
[10] = system: Liver; test: Stability in human liver microsomes at 3 uM up to 50 mins by LCMS analysis; assay type: ADME, microsome
[11] = biological target: T1, Epidermal growth factor receptor; test: Reversible inhibition of human N-terminal GST-tagged EGFR L858R mutant cytoplasmic domain (669 to 1210 end amino acid residues) expressed in baculovirus expression system using TK peptide substrate preincubated for 2 to 90 mins followed by 6-fold dilution
[12] = biological target: T4, Epidermal growth factor receptor; test: Reversible inhibition of wild-type human N-terminal GST-tagged EGFR cytoplasmic domain (669 to 1210 end amino acid residues) expressed in baculovirus expression system using TK peptide substrate assessed as inactivation constant preincubated for 2 to 90 mins followed by 6-fold dilution
[13] = system: Epidermal growth factor receptor (Homo sapiens), P00533 [L858R]; details: 1 uM
[14] = system: Epidermal growth factor receptor (Homo sapiens), P00533 [T790M]; details: 1 uM
[15] = system: Epidermal growth factor receptor (Homo sapiens), P00533 [L858R]
[16] = system: Epidermal growth factor receptor (Homo sapiens), P00533 [L858R,T790M]; details: 100 nM
[17] = system: Epidermal growth factor receptor (Homo sapiens), P00533 [L858R,T790M]; details: 100 nM; remark: listed apart in the source

T4 sequence (P00533 whole entry, the tested form may be a part): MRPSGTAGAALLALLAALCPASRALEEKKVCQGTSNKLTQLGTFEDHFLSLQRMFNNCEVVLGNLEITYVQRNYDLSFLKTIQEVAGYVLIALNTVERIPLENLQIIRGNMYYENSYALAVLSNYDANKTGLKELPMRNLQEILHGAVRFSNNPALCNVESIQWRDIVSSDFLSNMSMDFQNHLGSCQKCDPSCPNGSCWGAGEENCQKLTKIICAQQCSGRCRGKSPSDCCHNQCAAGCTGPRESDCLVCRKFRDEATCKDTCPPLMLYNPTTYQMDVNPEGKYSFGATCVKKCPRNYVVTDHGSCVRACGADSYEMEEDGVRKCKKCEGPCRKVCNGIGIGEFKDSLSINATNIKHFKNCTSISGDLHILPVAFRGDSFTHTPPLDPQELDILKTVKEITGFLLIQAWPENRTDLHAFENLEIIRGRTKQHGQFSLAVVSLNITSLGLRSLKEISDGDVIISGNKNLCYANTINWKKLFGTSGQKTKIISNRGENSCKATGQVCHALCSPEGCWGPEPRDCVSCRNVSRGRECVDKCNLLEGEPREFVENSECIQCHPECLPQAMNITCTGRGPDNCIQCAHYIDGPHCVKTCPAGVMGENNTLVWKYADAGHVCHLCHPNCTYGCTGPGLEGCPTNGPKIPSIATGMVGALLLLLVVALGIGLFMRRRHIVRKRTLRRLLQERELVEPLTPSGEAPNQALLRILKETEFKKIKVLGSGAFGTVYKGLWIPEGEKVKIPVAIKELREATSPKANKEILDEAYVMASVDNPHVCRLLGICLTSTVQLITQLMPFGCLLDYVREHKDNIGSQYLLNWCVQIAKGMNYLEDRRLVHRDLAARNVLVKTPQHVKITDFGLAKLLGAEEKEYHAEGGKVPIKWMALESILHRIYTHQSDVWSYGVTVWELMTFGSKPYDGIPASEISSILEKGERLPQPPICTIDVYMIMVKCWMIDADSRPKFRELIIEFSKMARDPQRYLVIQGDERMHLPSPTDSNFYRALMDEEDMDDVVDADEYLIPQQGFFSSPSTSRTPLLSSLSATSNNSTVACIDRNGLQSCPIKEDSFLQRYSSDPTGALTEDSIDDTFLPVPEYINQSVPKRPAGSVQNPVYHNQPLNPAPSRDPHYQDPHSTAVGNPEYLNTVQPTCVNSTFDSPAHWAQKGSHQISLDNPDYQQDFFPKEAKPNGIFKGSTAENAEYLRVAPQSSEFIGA
Sequence of Epidermal growth factor receptor (Homo sapiens), P00533 [L858R,T790M] (P00533 whole entry T790M/L858R, looked up): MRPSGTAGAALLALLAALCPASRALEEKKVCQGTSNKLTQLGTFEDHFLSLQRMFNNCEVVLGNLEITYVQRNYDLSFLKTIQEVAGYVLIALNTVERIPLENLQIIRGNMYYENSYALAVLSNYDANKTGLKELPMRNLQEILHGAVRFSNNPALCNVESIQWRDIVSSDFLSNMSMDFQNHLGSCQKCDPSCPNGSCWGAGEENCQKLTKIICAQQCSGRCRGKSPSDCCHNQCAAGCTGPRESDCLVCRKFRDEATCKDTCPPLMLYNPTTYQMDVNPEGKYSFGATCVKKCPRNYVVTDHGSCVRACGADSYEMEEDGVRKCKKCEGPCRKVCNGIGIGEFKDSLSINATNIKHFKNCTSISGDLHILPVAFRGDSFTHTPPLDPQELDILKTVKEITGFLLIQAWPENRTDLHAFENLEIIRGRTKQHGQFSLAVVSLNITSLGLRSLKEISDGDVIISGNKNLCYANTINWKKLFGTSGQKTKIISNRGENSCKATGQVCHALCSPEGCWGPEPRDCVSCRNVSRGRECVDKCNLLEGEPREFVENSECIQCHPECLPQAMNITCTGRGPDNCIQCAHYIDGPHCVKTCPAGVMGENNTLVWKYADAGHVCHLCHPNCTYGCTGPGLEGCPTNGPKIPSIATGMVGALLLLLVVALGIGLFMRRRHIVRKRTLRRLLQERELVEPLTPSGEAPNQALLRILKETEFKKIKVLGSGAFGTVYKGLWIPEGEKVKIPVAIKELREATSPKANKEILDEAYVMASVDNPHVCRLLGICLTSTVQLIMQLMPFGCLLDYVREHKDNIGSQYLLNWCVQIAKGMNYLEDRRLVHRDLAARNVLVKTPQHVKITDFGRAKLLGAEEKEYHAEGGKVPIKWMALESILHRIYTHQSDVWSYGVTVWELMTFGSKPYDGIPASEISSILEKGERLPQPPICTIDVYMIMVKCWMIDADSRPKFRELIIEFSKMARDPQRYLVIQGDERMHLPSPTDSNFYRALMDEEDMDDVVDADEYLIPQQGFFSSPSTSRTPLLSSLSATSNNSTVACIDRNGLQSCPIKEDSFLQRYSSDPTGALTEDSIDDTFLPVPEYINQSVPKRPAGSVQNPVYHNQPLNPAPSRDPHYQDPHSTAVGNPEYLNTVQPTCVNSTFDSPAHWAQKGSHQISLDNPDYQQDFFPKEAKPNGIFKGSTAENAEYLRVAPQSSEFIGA
Sequence of Epidermal growth factor receptor (Homo sapiens), P00533 [L858R] (P00533 whole entry L858R): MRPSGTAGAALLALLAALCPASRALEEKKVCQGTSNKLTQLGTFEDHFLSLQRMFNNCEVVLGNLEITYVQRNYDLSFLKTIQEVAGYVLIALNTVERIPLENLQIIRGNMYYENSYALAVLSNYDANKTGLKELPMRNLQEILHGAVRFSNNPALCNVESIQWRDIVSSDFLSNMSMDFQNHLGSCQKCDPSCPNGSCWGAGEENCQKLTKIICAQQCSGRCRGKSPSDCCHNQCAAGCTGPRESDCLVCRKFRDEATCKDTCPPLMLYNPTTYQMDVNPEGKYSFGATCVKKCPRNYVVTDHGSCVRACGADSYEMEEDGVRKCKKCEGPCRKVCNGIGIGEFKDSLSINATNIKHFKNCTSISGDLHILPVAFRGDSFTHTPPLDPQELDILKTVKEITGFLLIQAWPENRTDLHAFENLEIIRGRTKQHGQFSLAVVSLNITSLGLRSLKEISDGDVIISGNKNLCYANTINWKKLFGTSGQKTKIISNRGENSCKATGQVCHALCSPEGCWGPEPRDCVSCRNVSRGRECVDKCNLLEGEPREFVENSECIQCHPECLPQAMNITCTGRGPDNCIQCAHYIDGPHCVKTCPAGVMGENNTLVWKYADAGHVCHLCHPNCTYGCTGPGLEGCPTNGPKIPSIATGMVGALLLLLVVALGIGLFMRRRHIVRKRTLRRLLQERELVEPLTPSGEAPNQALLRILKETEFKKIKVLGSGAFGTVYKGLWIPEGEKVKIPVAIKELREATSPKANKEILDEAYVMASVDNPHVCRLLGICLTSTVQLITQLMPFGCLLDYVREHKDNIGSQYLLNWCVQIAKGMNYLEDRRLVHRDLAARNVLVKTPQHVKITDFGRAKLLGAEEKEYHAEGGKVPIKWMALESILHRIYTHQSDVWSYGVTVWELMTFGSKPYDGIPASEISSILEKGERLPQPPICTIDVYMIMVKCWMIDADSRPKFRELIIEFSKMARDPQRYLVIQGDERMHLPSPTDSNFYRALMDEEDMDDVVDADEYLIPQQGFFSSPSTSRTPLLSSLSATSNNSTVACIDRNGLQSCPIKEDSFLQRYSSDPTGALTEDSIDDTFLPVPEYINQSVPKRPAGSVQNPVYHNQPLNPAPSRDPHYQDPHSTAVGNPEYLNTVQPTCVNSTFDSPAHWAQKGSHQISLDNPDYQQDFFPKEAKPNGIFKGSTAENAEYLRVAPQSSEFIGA
Sequence of Receptor tyrosine-protein kinase erbB-2 (Homo sapiens) (P04626 whole entry, the tested form may be a part): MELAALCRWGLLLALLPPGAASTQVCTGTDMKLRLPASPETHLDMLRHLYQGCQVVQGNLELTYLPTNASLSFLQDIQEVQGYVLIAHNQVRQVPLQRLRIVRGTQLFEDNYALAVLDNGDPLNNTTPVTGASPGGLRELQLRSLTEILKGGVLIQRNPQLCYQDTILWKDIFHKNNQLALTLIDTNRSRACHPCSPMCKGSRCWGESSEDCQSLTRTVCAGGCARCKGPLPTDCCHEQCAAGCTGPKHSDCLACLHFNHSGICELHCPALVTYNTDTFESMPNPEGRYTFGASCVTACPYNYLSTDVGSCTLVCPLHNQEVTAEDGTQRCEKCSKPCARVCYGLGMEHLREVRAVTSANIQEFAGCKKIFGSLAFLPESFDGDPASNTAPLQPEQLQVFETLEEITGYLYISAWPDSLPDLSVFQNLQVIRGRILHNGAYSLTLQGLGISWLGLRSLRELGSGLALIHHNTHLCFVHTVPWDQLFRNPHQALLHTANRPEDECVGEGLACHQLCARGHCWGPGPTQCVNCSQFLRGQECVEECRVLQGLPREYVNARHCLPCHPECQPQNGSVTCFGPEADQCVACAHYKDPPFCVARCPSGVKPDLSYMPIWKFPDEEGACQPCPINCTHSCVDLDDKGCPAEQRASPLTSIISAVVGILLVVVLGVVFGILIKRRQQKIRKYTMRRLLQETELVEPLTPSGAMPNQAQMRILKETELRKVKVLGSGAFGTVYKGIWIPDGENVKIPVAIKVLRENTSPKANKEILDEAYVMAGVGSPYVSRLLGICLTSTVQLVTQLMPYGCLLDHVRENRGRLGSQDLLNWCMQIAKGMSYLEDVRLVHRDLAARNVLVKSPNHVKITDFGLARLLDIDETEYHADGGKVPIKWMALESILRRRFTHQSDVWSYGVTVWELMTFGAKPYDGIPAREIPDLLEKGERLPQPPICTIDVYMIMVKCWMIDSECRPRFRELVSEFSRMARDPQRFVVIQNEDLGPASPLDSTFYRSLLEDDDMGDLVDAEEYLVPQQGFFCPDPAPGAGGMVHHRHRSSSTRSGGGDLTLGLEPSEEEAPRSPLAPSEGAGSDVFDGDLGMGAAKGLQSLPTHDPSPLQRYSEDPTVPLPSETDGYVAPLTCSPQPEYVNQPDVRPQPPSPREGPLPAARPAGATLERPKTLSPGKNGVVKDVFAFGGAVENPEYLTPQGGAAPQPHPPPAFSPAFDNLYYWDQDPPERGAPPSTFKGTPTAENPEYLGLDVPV

In the case of `C=CC(=O)Nc1cc(Nc2n[nH]c3cc(Nc4cccc(F)c4)ccc23)c(OC)cc1N(C)CCN(C)C`, the IC50 [1] is reported as less than 1 nM, the IC50 [2] is reported as less than 1 nM and the inhibition [3] is reported as greater than 85%. The inhibition [4] was greater than 85%, the inhibition [5] was “Active” and the inhibition [6] was “Active”. The inhibition [7] was greater than 85%, the kinact/KI [8] was 470000 M⁻¹ s⁻¹ and the inhibition [9] was “inactive”. For the same compound, the Stability [10] was “Stable”, the Ki [11] was 3.9 nM and the kinact [12] was 0.00233 s⁻¹. It also gave an inhibition [13] greater than 95%, an inhibition [14] greater than 95% and a Kinact [15] of 0.09 min⁻¹. For the same compound, the inhibition [16] was “Active” and the inhibition [17] was “Active”.
